In brackets after ≈: the same amount, converted by molar mass. Where two headings read alike, the source gives them in different places.
Assays:
Assay type in all cases: cell-based
[1] = test system: Bacillus subtilis, ATCC 23857; experiment: Minimal inhibitory concentration assay (microbroth dilution)
In short: (§1)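 MIC is the lowest concentration stopping visible growth after overnight aerobic culture at 37 °C, per CLSI microbroth dilution (about 10^5 cfu/mL; two-fold series, top final 200 μM). ClpP-inactivated S. aureus USA 300 tested alongside parent strain to probe ClpP-mediated killing.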

[2] = test system: Streptococcus pneumoniae, DAW27; experiment: as above; conditions: DAW27, read-out: Minimal Inhibitory Concentrations S. pneumoniae DAW27
In short: as §1

[3] = test system: Enterococcus faecalis, ATCC 33186; experiment: as above
In short: as §1

[4] = test system: Staphylococcus aureus, NRS70; experiment: as above
In short: as §1

[5] = test system: E. coli K12ΔtolC; experiment: as above
[6] = test system: Streptococcus pyogenes, ATCC 700294; experiment: as above
In short: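 Plates with two-fold compound dilution series in broth were incubated overnight, aerobically, at 37° C, following CLSI microdilution guidance.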

[7] = test system: Staphylococcus aureus, ATCC 29213; experiment: as above; conditions: ATCC29213, read-out: Minimal Inhibitory Concentrations S. aureus ATCC 29213
In short: as §1

[8] = test system: Staphylococcus aureus, USA 300; experiment: Minimal inhibitory concentration assay; conditions: USA300, read-out: Minimal Inhibitory Concentrations S. aureus USA 300
In short: as §1

[9] = test system: Staphylococcus aureus, USA 300 wherein ClpP is inactivated; experiment: Minimal inhibitory concentration assay
In short: as §1

[10] = test system: Vero (kidney epithelial cells; ATCC CCL-81); experiment: Cytotoxicity assay (CellTiter-Glo cell viability, 72 hours); conditions: Vero cells, 72 hours, growth inhibition; read-out: Cytotoxicity IC50
In short: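 Viability measured by CellTiter-Glo luminescence after 72-hour compound exposure (serial dilutions, DMSO control) of Vero monolayers seeded at 5000 cells/well in 10% FBS DMEM. IC50 values are the range of two biologically independent experiments, each run in duplicate.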

[11] = Bacillus subtilis, ATCC23857; read-out: Minimal Inhibitory Concentrations B. subtilis ATCC 23857
[12] = Enterococcus faecalis, ATCC33186; read-out: Minimal Inhibitory Concentrations E. faecalis ATCC 33186
[13] = Staphylococcus aureus, NRS70; read-out: Minimal Inhibitory Concentrations S. aureus NRS70
[14] = Streptococcus pyogenes, ATCC700294; read-out: Minimal Inhibitory Concentrations S. pyogenes ATCC 700294

SMILES	MIC [1, 11]	MIC [2]	MIC [3, 12]	MIC ([4]; S. aureus NRS70; read-out: Minimal Inhibitory Concentrations S. aureus NRS70)	Minimal Inhibitory Concentrations E. coli K12ΔtolC [5]	MIC ([6]; S. pyogenes ATCC 700294; read-out: Minimal Inhibitory Concentrations S. pyogenes ATCC 700294)	MIC [7]	MIC [4, 13]	MIC [6, 14]	MIC [8]	Minimal Inhibitory Concentrations S. aureus USA 300 ΔClpP [9]	MIC ([1]; Bacillus subtilis, ATCC23857, read-out: Minimal Inhibitory Concentrations B. subtilis ATCC 23857)	MIC ([3]; Enterococcus faecalis, ATCC33186, read-out: Minimal Inhibitory Concentrations E. faecalis ATCC 33186)	MIC ([4]; Staphylococcus aureus, NRS70, read-out: Minimal Inhibitory Concentrations S. aureus NRS70)	IC50 [10]	MIC ([6]; Streptococcus pyogenes, ATCC700294, read-out: Minimal Inhibitory Concentrations S. pyogenes ATCC 700294)
C[C@@H]1C[C@H]2C(=O)OC[C@H](NC(=O)[C@H](Cc3ccccc3)NC(=O)Nc3ccc(OC(F)(F)F)cc3)C(=O)N3CCC[C@H]3C(=O)N3CCCC[C@H]3C(=O)N[C@@H](C)C(=O)N2C1 [Compound 2, (S)—N-((2R,6S,8aS,14aS,20S,23aS)-2,6-dimethyl-5,8,14,19,23-pentaoxooctadecahydro-1H,5H,14H,19H-pyrido[2,1-i]dipyrrolo[2,1-c:2′,1′-l][1]oxa[4,7,10,13]tetraazacyclohexadecin-20-yl)-3-phenyl-2-(3-(4-(trifluoromethoxy)phenyl)ureido)propanamide]	0.2 µM (≈ 0.166 µg/mL)	0.02 µM (≈ 0.0166 µg/mL)	0.02 µM (≈ 0.0166 µg/mL)	0.20 µM (≈ 0.166 µg/mL)	12.5 µM	0.10 µM (≈ 0.0828 µg/mL)										
NC[C@H]1O[C@H](O[C@H]2[C@H](O)[C@@H](O[C@H]3O[C@H](CO)[C@@H](O)[C@H](N)[C@H]3O)[C@H](N)C[C@@H]2N)[C@H](O)[C@@H](O)[C@@H]1O [Kanamycin, kanamycin, reference compound]	0.1 µM (≈ 0.0485 µg/mL)	25 µM (≈ 12.1 µg/mL)	25 µM (≈ 12.1 µg/mL)		0.4 µM		1.56 µM (≈ 0.756 µg/mL)	50 µM (≈ 24.2 µg/mL)	12.5 µM (≈ 6.06 µg/mL)							
O=C(N[C@H](CO)[C@H](O)c1ccc([N+](=O)[O-])cc1)C(Cl)Cl [Chloroamphenicol, chloramphenicol, reference compound]	3.1 µM (≈ 1 µg/mL)	0.78 µM (≈ 0.252 µg/mL)	0.39 µM (≈ 0.126 µg/mL)		0.78 µM		3.13 µM (≈ 1.01 µg/mL)	3.1 µM (≈ 1 µg/mL)		3.1 µM (≈ 1 µg/mL)	6.3 µM					
COc1cccc(NC(=O)N[C@@H](Cc2ccccc2)C(=O)N[C@H]2COC(=O)[C@@H]3C[C@@H](C)CN3C(=O)[C@H](C)NC(=O)[C@@H]3CCCCN3C(=O)[C@@H]3CCCN3C2=O)c1 [Compound 8, (S)—N-((2R,6S,8aS,14aS,20S,23aS)-2,6-dimethyl-5,8,14,19,23-pentaoxooctadecahydro-1H,5H,14H,19H-pyrido[2,1-i]dipyrrolo[2,1-c:2′,1′-l][1]oxa[4,7,10,13]tetraazacyclohexadecin-20-yl)-2-(3-(3-methoxyphenyl)ureido)-3-phenylpropanamide]	3.13 µM (≈ 2.42 µg/mL)	0.39 µM (≈ 0.302 µg/mL)	1.56 µM (≈ 1.21 µg/mL)		200 µM		3.13 µM (≈ 2.42 µg/mL)	3.13 µM (≈ 2.42 µg/mL)	0.78 µM (≈ 0.604 µg/mL)							
CCc1ccc(NC(=O)N[C@@H](Cc2ccccc2)C(=O)N[C@H]2COC(=O)[C@@H]3C[C@@H](C)CN3C(=O)[C@H](C)NC(=O)[C@@H]3CCCCN3C(=O)[C@@H]3CCCN3C2=O)cc1 [Compound 4, (S)—N-((2R,6S,8aS,14aS,20S,23aS)-2,6-dimethyl-5,8,14,19,23-pentaoxooctadecahydro-1H,5H,14H,19H-pyrido[2,1-i]dipyrrolo[2,1-c:2′,1′-l][1]oxa[4,7,10,13]tetraazacyclohexadecin-20-yl)-2-(3-(4-ethylphenyl)ureido)-3-phenylpropanamide]	0.2 µM (≈ 0.154 µg/mL)	0.04 µM (≈ 0.0309 µg/mL)	0.1 µM (≈ 0.0772 µg/mL)		25 µM		0.78 µM (≈ 0.602 µg/mL)	0.39 µM (≈ 0.301 µg/mL)	0.2 µM (≈ 0.154 µg/mL)							
C[C@@H]1C[C@H]2C(=O)OC[C@H](NC(=O)[C@H](Cc3ccccc3)NC(=O)Nc3ccc4ccn(C)c4c3)C(=O)N3CCC[C@H]3C(=O)N3CCCC[C@H]3C(=O)N[C@@H](C)C(=O)N2C1 [Compound 12, (S)—N-((2R,6S,8aS,14aS,20S,23aS)-2,6-dimethyl-5,8,14,19,23-pentaoxooctadecahydro-1H,5H,14H,19H-pyrido[2,1-i]dipyrrolo[2,1-c:2′,1′-l][1]oxa[4,7,10,13]tetraazacyclohexadecin-20-yl)-2-(3-(1-methyl-1H-indol-6-yl)ureido)-3-phenylpropanamide]		0.3 µM (≈ 0.239 µg/mL)					2.5 µM (≈ 1.99 µg/mL)					2.5 µM (≈ 1.99 µg/mL)	1.25 µM (≈ 0.996 µg/mL)	2.5 µM (≈ 1.99 µg/mL)	90 ± 7.6 µM	0.6 µM (≈ 0.478 µg/mL)

From US10457707B2, “Substituted urea depsipeptide analogs as activators of the CLPP endopeptidase” (priority 2015, dated 2019)
